Results: ChEMBL document CHEMBL5528011, “Recent progress and applications of small molecule inhibitors of Keap1-Nrf2 axis for neurodegenerative diseases” (Eur J Med Chem, 2024)
Blank lines part the entries; values can stand above or below the compound they belong to.

Key:
[1] = Induction of NQO1 expression in mouse Hepa1c1c7 cells; type: functional
Keap1/Nrf2 [2] = biological target: T1, Keap1/Nrf2 (Homo sapiens, UniProt Q14145+Q16236); assay: Binding affinity to human Keap1-Nrf2 protein-protein interaction assessed as inhibition constant incubated for 60 mins by fluorescent polarization assay
T1 sequence (Q16236 whole entry): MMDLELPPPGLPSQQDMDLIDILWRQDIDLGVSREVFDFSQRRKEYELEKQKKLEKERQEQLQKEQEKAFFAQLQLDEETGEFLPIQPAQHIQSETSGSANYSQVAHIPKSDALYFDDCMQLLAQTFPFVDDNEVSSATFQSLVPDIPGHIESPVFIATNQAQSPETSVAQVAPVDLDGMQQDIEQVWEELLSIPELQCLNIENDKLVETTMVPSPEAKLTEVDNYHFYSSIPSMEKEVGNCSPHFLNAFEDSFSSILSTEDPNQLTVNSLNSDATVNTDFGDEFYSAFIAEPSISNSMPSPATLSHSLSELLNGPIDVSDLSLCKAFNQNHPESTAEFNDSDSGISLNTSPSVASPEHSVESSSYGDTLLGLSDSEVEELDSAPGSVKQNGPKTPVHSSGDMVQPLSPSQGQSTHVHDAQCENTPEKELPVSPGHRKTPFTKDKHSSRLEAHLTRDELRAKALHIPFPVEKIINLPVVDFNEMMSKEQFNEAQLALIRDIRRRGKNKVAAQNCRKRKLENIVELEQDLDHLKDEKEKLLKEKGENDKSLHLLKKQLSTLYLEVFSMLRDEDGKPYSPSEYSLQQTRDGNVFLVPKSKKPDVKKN
T1 sequence (Q14145 whole entry): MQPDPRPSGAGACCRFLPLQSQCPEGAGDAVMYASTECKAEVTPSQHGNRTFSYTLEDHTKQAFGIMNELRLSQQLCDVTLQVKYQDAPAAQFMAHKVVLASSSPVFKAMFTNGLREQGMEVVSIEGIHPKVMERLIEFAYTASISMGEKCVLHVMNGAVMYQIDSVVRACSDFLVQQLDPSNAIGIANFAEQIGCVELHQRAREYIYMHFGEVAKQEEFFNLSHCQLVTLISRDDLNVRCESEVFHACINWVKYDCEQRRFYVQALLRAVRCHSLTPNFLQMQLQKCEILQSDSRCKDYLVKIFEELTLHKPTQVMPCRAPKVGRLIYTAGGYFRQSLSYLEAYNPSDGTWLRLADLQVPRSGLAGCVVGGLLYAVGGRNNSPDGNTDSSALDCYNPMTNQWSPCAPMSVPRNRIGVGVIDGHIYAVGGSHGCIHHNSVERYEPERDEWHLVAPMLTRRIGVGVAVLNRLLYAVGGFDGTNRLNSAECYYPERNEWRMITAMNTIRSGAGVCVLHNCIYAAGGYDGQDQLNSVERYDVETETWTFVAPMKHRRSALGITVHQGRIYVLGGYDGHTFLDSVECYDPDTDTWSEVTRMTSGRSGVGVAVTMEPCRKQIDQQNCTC

[3] = biological target: Amyloid-beta precursor protein (Homo sapiens, UniProt P05067); assay: Inhibition of amyloid beta 42 (unknown origin) self aggregation by Thioflavin T-based fluorometric assay
Chain of Amyloid-beta precursor protein (P05067 whole entry): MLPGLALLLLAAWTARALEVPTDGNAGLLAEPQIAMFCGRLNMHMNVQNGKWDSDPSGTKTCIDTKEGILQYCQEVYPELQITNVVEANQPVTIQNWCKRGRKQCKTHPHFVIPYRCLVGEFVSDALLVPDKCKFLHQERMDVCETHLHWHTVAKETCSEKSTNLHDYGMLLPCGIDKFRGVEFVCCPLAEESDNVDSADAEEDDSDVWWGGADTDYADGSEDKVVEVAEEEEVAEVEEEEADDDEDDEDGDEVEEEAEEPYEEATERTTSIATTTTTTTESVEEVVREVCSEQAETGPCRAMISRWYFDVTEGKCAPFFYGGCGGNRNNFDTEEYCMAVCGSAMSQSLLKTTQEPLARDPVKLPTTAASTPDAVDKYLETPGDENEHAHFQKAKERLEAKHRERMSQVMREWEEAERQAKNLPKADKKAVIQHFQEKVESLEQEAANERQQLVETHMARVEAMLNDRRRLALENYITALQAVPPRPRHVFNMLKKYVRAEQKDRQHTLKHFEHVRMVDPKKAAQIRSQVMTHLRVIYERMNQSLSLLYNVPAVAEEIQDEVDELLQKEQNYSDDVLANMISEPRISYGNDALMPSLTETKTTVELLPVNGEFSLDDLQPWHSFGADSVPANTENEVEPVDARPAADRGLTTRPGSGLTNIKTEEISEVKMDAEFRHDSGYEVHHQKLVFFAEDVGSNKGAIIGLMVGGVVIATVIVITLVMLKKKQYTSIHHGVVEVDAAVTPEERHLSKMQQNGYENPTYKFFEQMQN

BV-2 = assay: Antiinflammatory activity against mouse BV-2 cells assessed as reduction in LPS-induced NO production at 20 uM incubated for 24 hrs by Griess reagent based assay relative to control; type: functional; design: scale not given: the % may be the effect or the level left
[4] = biological target: T2, Nuclear factor erythroid 2-related factor 2 (Mus musculus) (UniProt Q60795); assay: Activation of Nrf2 in mouse BV-2 cells assessed as increase in GCLM mRNA expression by measuring fold change at 5 uM incubated for 3 hrs by qRT-PCR analysis; type: cell-based; settings: filed as activator
T2 sequence (whole entry): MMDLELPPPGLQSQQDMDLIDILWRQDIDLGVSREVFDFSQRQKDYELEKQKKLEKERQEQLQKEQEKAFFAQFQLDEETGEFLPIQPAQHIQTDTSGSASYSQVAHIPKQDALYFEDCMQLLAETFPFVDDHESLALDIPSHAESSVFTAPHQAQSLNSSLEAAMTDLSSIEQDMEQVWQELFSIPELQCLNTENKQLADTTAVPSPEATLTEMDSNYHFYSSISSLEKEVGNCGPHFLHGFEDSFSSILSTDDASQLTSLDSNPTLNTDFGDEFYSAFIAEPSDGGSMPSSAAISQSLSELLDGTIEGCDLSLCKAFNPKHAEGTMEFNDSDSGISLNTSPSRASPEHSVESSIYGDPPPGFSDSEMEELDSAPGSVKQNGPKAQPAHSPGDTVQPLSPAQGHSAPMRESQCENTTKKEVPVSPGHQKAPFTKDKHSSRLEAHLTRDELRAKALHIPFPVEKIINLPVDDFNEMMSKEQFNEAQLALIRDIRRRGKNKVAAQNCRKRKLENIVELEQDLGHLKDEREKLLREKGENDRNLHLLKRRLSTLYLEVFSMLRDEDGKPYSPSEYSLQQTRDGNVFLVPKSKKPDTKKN

[5] = biological target: T2, Nuclear factor erythroid 2-related factor 2 (Mus musculus); assay: Activation of Nrf2 in mouse BV-2 cells assessed as increase in GCLC mRNA expression by measuring fold change at 5 uM measured for 3 hrs by qRT-PCR analysis; type: cell-based; settings: filed as activator
[6] = biological target: T2, Nuclear factor erythroid 2-related factor 2 (Mus musculus); assay: Activation of Nrf2 pathway in mouse BV-2 cells assessed as fold increase in HO-1 level at 5 uM measured after 3 hrs by Western blot analysis; type: cell-based; settings: filed as activator
Keap1/Nrf2 [7] = biological target: T1, Keap1/Nrf2; assay: Binding affinity to human Keap1-Nrf2 protein-protein interaction assessed as dissociation constant; type: protein assay
Keap1/Nrf2 [8] = biological target: Keap1/Nrf2 (Homo sapiens, UniProt Q14145); assay: Inhibition of human Keap1 KELCH domain (321 to 609 residues) expressed in Escherichia coli BL21 DE3 pLysS cells/Nrf2 (unknown origin) protein-protein interaction preincubated with Keap1 for 1 hr followed by Nrf2 addition and measured after 1 hr by fluorescence polarization assay
Chain of Keap1/Nrf2 (Homo sapiens, UniProt Q14145) (Q16236 whole entry, the tested form may be a part): as the sequence (Q16236 whole entry) above
Chain of Keap1/Nrf2 (Homo sapiens, UniProt Q14145) (Q14145 whole entry, the tested form may be a part): as the sequence (Q14145 whole entry) above

HepG2-ARE-C8 = assay: Activation of Nrf2-ARE pathway in human HepG2-ARE-C8 cells measured for 24 hrs by ARE-luciferase assay; type: cell-based; settings: filed as activator

Compound: O=[N+]([O-])c1ccc(Sc2nnc(Cc3ccccc3)n2-c2ccccc2)nc1
CD [1]: 0.3 µM

Compound: O=[N+]([O-])c1ccc(Sc2nnc(COc3ccccc3)[nH]2)nc1
CD [1]: 7.5 µM

Ki (Keap1/Nrf2 [2]): 6.15 µM
Compound: O=C(NCC1CCCO1)C1CCC([N+](=O)[O-])S1 (centres undefined)

IC50 [3]: 12.5 µM
Compound: C=CCSC(=O)/C=C/c1ccc(O)c(O)c1

Compound: COc1ccccc1S(=O)(=O)/C=C/c1ccccc1Cl
Activity (BV-2): 15.2%

Compound: COc1ccccc1S(=O)(=O)/C=C/c1ccc(Cl)cc1
Activity (BV-2): 31.5%

Compound: CC1(C)CC[C@]2(C(=O)O)CC[C@]3(C)C(C(=O)C=C4[C@@]5(C)C=CC(=O)C(C)(C)[C@@H]5CC[C@]43C)[C@@H]2C1 (some centres undefined)
CD [1]: 0.28 µM

fold change (FC) [4]: 2.39
fold change (FC) [5]: 2.39
fold change (FC) [6]: 2.02
Compound: CC(=O)O[C@H]1CC(C)(C)C(=C=C/C(C)=C/C=C/C(C)=C/C=C/C=C(C)/C=C/C=C(\C)C(=O)C[C@@]23O[C@]2(C)C[C@@H](O)CC3(C)C)[C@](C)(O)C1

Compound: COc1ccccc1S(=O)(=O)/C=C/c1ccccc1C(F)(F)F
Activity (BV-2): 29.9%

Compound: O=[N+]([O-])c1ccc(Sc2nnc(COc3ccccc3)n2-c2ccccc2)nc1
CD [1]: 2.5 µM

Compound: O=[N+]([O-])c1ccc(Sc2nnc(COc3ccccc3)n2-c2ccccc2)cc1
CD [1]: 10 µM

Compound: CC1(C)CC[C@]2(C#N)CC[C@]3(C)C(C(=O)C=C4[C@@]5(C)C=C(C#N)C(=O)C(C)(C)[C@@H]5CC[C@]43C)[C@@H]2C1 (some centres undefined)
CD [1]: 0.00027 µM

Compound: CC1(C)CC[C@]2(C(=O)O)CC[C@]3(C)C(C(=O)C=C4[C@@]5(C)C=C(C(=O)O)C(=O)C(C)(C)[C@@H]5CC[C@]43C)[C@@H]2C1 (some centres undefined)
CD [1]: 0.22 µM

Kd (Keap1/Nrf2 [7]): < 30 µM
Compound: [H]/N=C(\N/C(=N/[H])NCCCCCCNC(=N)NC(=N)Nc1ccc(Cl)cc1)Nc1ccc(Cl)cc1 [CHLORHEXIDINE]

Compound: COC(=O)[C@]12CCC(C)(C)C[C@H]1C1C(=O)C=C3[C@@]4(C)C=C(C(=O)O)C(=O)C(C)(C)[C@@H]4CC[C@@]3(C)[C@]1(C)CC2 (some centres undefined)
CD [1]: 0.018 µM

Compound: Nc1ccc(Sc2nnc(COc3ccccc3)n2-c2ccccc2)nc1
CD [1]: 2.5 µM

Compound: CNC(=O)[C@]12CCC(C)(C)C[C@H]1C1C(=O)C=C3[C@@]4(C)C=C(C#N)C(=O)C(C)(C)[C@@H]4CC[C@@]3(C)[C@]1(C)CC2 (some centres undefined)
CD [1]: 0.001 µM

Compound: COc1ccccc1S(=O)(=O)/C=C/c1cccc(Cl)c1
Activity (BV-2): 32.1%

IC50 (Keap1/Nrf2 [8]): 0.0257 µM
Compound: COc1ccc(S(=O)(=O)Nc2ccc(N(CC(N)=O)S(=O)(=O)c3ccc(OC)cc3)c3ccccc23)cc1
Activity (HepG2-ARE-C8): 1.8 nM

Compound: COc1ccccc1S(=O)(=O)/C=C/c1ccccc1F
Activity (BV-2): 24%

Compound: COC(=O)[C@]12CCC(C)(C)C[C@H]1C1C(=O)C=C3[C@@]4(C)C=C(C#N)C(=O)C(C)(C)[C@@H]4CC[C@@]3(C)[C@]1(C)CC2 (some centres undefined)
CD [1]: 0.001 µM
